Data as given in patent US12479830B2, “Homopiperazinyl and homopiperidinyl quinazolin-4(3H)-one derivatives having multimodal activity against pain” (ESTEVE PHARMACEUTICALS, S.A., priority 2019, dated 2025).
pKi: −log10 of the molar value.

Key:
Human σ1 receptor = biological target: T1, Human σ1 receptor (Homo sapiens, UniProt Q99720); experiment: Human σ1 receptor radioligand assay ([3H](+)-pentazocine binding); conditions: binding to the σ1 receptor, expressed as Ki class; + also covers inhibition between 1% and 50%
T1 construct: expressed in transfected cells; host or cells: HEK-293
T1 sequence (Q99720 whole entry): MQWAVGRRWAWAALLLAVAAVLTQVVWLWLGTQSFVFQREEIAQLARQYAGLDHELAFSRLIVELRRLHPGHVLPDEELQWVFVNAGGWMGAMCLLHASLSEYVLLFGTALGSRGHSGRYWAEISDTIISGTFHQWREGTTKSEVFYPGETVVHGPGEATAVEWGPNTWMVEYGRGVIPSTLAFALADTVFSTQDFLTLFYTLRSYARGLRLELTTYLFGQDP
Method: Human σ1 Receptor Radioligand Assay
Transfected HEK-293 membranes (7 μg) were incubated with 5 nM of [^3H](+)-pentazocine in assay buffer containing Tris-HCl 50 mM at pH 8. NBS (non-specific binding) was measured by adding 10 μM haloperidol. The binding of the test compound was measured at either one concentration (% inhibition at 1 or 10 μM) or five different concentrations to determine affinity values (Ki). Plates were incubated at 37° C. for 120 minutes. After the incubation period, the reaction mix was then transferred to MultiScreen HTS, FC plates (Millipore), filtered and plates were washed 3 times with ice-cold 10 mM Tris-HCL (pH7.4). Filters were dried and counted at approximately 40% efficiency in a MicroBeta scintillation counter (Perkin-Elmer) using EcoScint liquid scintillation cocktail.

[1] = biological target: Human α2δ-1 subunit of Cav2.2 calcium channel (Homo sapiens, UniProt P54289); experiment: Human α2δ-1 subunit of Cav2.2 calcium channel assay ([3H]-gabapentin binding); conditions: binding to the α2δ-1 subunit of voltage-gated calcium channels, expressed as Ki class; + also covers inhibition between 1% and 50%
Sequence of Human α2δ-1 subunit of Cav2.2 calcium channel (P54289 25-1103): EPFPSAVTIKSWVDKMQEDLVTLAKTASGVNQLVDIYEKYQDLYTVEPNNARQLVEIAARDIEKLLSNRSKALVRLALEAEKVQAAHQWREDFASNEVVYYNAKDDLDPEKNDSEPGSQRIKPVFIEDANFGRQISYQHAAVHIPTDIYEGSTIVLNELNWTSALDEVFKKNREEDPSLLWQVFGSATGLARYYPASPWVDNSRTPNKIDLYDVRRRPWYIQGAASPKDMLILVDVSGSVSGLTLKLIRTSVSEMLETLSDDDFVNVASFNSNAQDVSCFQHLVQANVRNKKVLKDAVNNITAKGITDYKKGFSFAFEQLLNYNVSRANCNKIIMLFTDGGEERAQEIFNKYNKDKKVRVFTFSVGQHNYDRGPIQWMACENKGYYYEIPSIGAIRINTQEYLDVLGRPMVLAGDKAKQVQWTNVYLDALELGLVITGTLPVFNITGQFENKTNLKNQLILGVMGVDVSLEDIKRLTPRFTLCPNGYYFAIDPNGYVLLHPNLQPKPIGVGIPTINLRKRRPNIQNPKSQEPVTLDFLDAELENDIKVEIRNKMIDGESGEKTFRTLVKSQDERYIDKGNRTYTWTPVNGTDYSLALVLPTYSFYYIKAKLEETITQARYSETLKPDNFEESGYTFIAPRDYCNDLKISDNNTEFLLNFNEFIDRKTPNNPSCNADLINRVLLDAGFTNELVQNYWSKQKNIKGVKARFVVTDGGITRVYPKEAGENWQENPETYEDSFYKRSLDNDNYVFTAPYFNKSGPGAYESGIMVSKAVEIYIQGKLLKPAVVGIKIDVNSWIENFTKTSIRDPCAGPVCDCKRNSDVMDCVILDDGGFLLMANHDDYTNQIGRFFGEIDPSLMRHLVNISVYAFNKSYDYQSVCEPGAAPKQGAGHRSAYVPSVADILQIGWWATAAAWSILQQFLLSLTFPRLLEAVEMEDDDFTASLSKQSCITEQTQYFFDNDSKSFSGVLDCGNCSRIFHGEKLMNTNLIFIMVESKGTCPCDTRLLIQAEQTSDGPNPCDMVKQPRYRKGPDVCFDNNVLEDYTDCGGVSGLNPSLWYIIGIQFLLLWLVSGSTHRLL
Method: Human α2δ-1 Subunit of Cav2.2 Calcium Channel Assay
Human α2δ-1 enriched membranes (2.5 μg) were incubated with 15 nM of radiolabeled [^3H]-Gabapentin in assay buffer containing Hepes-KOH 10 mM. pH 7.4. NSB (non specific binding) was measured by adding 10 μM pregabalin. The binding of the test compound was measured at either one concentration (% inhibition at 1 or 10 μM) or five different concentrations to determine affinity values (Ki). After 60 min incubation at 27° C., binding reaction was terminated by filtering through Multiscreen GF/C (Millipore) presoaked in 0.5% polyethyleneimine in Vacuum Manifold Station, followed by 3 washes with ice-cold filtration buffer containing 50 mM Tris-HCl, pH 7.4. Filter plates were dried at 60° C. for 1 h and 30 μL of scintillation cocktail were added to each well before radioactivity reading. Readings were performed in a Trilux 1450 Microbeta radioactive counter (Perkin Elmer).

Row | SMILES | pKi (Human σ1 receptor) | pKi [1]
1 | CCC[C@H](c1nc2ccc(OC)cc2c(=O)n1CC)N1CCCN(C)CC1 [Example 15, (R)-3-ethyl-6-methoxy-2-(1-(4-methyl-1,4-diazepan-1-yl)butyl)quinazolin-4(3H)-one] | < 6.00 | > 6.30
2 | CCC[C@@H](c1nc2ccc(OC)cc2c(=O)n1CC)N1CCCN(C)CC1 [Example 16, (S)-3-ethyl-6-methoxy-2-(1-(4-methyl-1,4-diazepan-1-yl)butyl)quinazolin-4(3H)-one] | < 6.00 | < 5.30
3 | CCCC(c1nc2cnccc2c(=O)n1CC)N1CCCN(C)CC1 (centres unmarked) [Example 17, 3-ethyl-2-(1-(4-methyl-1,4-diazepan-1-yl)butyl)pyrido[3,4-d]pyrimidin-4(3H)-one] | < 6.00 | > 6.30
4 | CCCC(c1nc2ccc(Br)cc2c(=O)n1CCC)N1CCCN(C)CC1 (centres unmarked) [Example 18, 6-bromo-2-(1-(4-methyl-1,4-diazepan-1-yl)butyl)-3-propylquinazolin-4(3H)-one] | > 6.30 | > 6.30
5 | CCCC(c1nc2ccc(Cl)cc2c(=O)n1CC)N1CCCN(C)CC1 (centres unmarked) [Example 19, 6-chloro-3-ethyl-2-(1-(4-methyl-1,4-diazepan-1-yl)butyl)quinazolin-4(3H)-one] | 6.00 to 6.30 | > 6.30
6 | CCCC(c1nc2ccc(Br)cc2c(=O)n1CCC)N1CCCN(CC)CC1 (centres unmarked) [Example 20, 6-bromo-2-(1-(4-ethyl-1,4-diazepan-1-yl)butyl)-3-propylquinazolin-4(3H)-one] | > 6.30 | > 6.30
7 | CCCC(c1nc2ccc(F)cc2c(=O)n1CC)N1CCCN(C)CC1 (centres unmarked) [Example 21, 3-ethyl-6-fluoro-2-(1-(4-methyl-1,4-diazepan-1-yl)butyl)quinazolin-4(3H)-one] | > 6.30 | > 6.30
8 | CCCC(c1nc2ccc(Cl)cc2c(=O)n1CC)N1CCCNCC1 (centres unmarked) [Example 22, 2-(1-(1,4-diazepan-1-yl)butyl)-6-chloro-3-ethylquinazolin-4(3H)-one] | < 6.00 | > 6.30
9 | CCCC(c1nc2ccc(Cl)cc2c(=O)n1CCC)N1CCCN(C)CC1 (centres unmarked) [Example 23, 6-chloro-2-(1-(4-methyl-1,4-diazepan-1-yl)butyl)-3-propylquinazolin-4(3H)-one] | 6.00 to 6.30 | > 6.30
10 | CCCC(c1nc2ccc(Br)c(C)c2c(=O)n1CC)N1CCCN(C)CC1 (centres unmarked) [Example 24, 6-bromo-3-ethyl-5-methyl-2-(1-(4-methyl-1,4-diazepan-1-yl)butyl)quinazolin-4(3H)-one] | > 6.30 | 5.30 to 6.30
11 | CCCC(c1nc2c(C)cc(Br)cc2c(=O)n1CC)N1CCCN(C)CC1 (centres unmarked) [Example 25, 6-bromo-3-ethyl-8-methyl-2-(1-(4-methyl-1,4-diazepan-1-yl)butyl)quinazolin-4(3H)-one] | 6.00 to 6.30 | < 5.30
12 | CCCC(c1nc2cc(F)c(Br)cc2c(=O)n1CCC)N1CCCN(C)CC1 (centres unmarked) [Example 26, 6-bromo-7-fluoro-2-(1-(4-methyl-1,4-diazepan-1-yl)butyl)-3-propylquinazolin-4(3H)-one] | > 6.30 | > 6.30
13 | CCCC(c1nc2cc(F)c(Br)cc2c(=O)n1CC)N1CCCNCC1 (centres unmarked) [Example 27, 2-(1-(1,4-diazepan-1-yl)butyl)-6-bromo-3-ethyl-7-fluoroquinazolin-4(3H)-one] | < 6.00 | > 6.30
14 | CCCC(c1nc2ccc(Br)cc2c(=O)n1CC)N1CCNCC(C)(C)C1 (centres unmarked) [Example 28, 6-bromo-2-(1-(6,6-dimethyl-1,4-diazepan-1-yl)butyl)-3-ethylquinazolin-4(3H)-one] | 6.00 to 6.30 | 5.30 to 6.30
15 | CCCC(c1nc2cc(F)c(F)cc2c(=O)n1CC)N1CCCN(C)CC1 (centres unmarked) [Example 29, 3-ethyl-6,7-difluoro-2-(1-(4-methyl-1,4-diazepan-1-yl)butyl)quinazolin-4(3H)-one] | 6.00 to 6.30 | > 6.30
16 | CCCC(c1nc2ccc(Br)cc2c(=O)n1CC)N1CCN(C)CC(C)(C)C1 (centres unmarked) [Example 30, 6-bromo-3-ethyl-2-(1-(4,6,6-trimethyl-1,4-diazepan-1-yl)butyl)quinazolin-4(3H)-one] | < 6.00 | < 5.30
